For 8 compounds, mutagenic call results are on record in PubChem BioAssay AID1259407 (Chemical Carcinogenesis Research Information System (CCRIS), 2018).

Calls of active or inactive are those of the source. No rule for the calls is given here. Where a SMILES comes first, the peptide text is derived from it. [ ]: non-standard residue; d: D form. ξ: configuration not given here. Trp(1-OMe) = COn1cc(C[C@H](N)C(=O)O)c2ccccc21; Asu = N[C@@H](CCCCCC(=O)O)C(=O)O; Ile(3ξ) = CCC(C)[C@H](N)C(=O)O; dPip = O=C(O)[C@H]1CCCCN1

In this series the test system is CCRIS mutagenicity, Ames/micronucleus/aberration tests. Briefly: CCRIS mutagenicity studies.
Setting [1] is: Test System: AMES SALMONELLA TYPHIMURIUM, Strain/Indicator: TA98, Metabolic Activation: NONE, Method: PREINCUBATION
Where [2] appears, read: Test System: AMES SALMONELLA TYPHIMURIUM, Strain/Indicator: TA100, Metabolic Activation: NONE, Method: PREINCUBATION
The mark [3] stands for this setting: Test System: AMES SALMONELLA TYPHIMURIUM, Strain/Indicator: TA102, Metabolic Activation: NONE, Method: PREINCUBATION
[4] abbreviates: Test System: AMES SALMONELLA TYPHIMURIUM, Strain/Indicator: TA98, Metabolic Activation: NONE, Method: STANDARD PLATE.
The mark [5] stands for this setting: Test System: AMES SALMONELLA TYPHIMURIUM, Strain/Indicator: TA100, Metabolic Activation: NONE, Method: STANDARD PLATE.

As to `CCC(C)[C@@H]1NC(=O)[C@H](Cc2cn(OC)c3ccccc23)NC(=O)[C@H](CCCCCC(=O)OC)NC(=O)[C@H]2CCCCN2C1=O` (stereo partly specified) (cyclo([Asu](OMe)[Trp(1-OMe)][Ile(3ξ)][dPip])), the mutagenic call is, setting by setting: (End Point: IN VITRO CHROMOSOMAL ABERRATIONS, Test System: CHO CELLS, Metabolic Activation: NONE) “active; positive (structural changes)”; (End Point: IN VITRO CHROMOSOMAL ABERRATIONS, Test System: CHO CELLS, Metabolic Activation: RAT, LIVER, S-9, AROCLOR 1254) “active; positive (structural changes)”; (End Point: IN VIVO MICRONUCLEUS, Test System: BONE MARROW POLYCHROMATIC ERYTHROCYTES, Species: MOUSE, Strain/Sex: ICR/MALE, Route: IP INJECTION) “active; positive”; under setting [1], “inactive; negative”; (Test System: AMES SALMONELLA TYPHIMURIUM, Strain/Indicator: TA98, Metabolic Activation: RAT, LIVER, S-9, AROCLOR 1254, Method: PREINCUBATION) “inactive; negative”; under setting [2], “inactive; negative”. The mutagenic call was “inactive; negative” (Test System: AMES SALMONELLA TYPHIMURIUM, Strain/Indicator: TA100, Metabolic Activation: RAT, LIVER, S-9, AROCLOR 1254, Method: PREINCUBATION); “inactive; negative” under setting [3]; “inactive; negative” (Test System: AMES SALMONELLA TYPHIMURIUM, Strain/Indicator: TA102, Metabolic Activation: RAT, LIVER, S-9, AROCLOR 1254, Method: PREINCUBATION); “inactive; negative” (Test System: AMES SALMONELLA TYPHIMURIUM, Strain/Indicator: TA1535, Metabolic Activation: NONE, Method: PREINCUBATION); “inactive; negative” (Test System: AMES SALMONELLA TYPHIMURIUM, Strain/Indicator: TA1535, Metabolic Activation: RAT, LIVER, S-9, AROCLOR 1254, Method: PREINCUBATION); “inactive; negative” (Test System: AMES SALMONELLA TYPHIMURIUM, Strain/Indicator: TA1537, Metabolic Activation: NONE, Method: PREINCUBATION). For the same compound, the mutagenic call (Test System: AMES SALMONELLA TYPHIMURIUM, Strain/Indicator: TA1537, Metabolic Activation: RAT, LIVER, S-9, AROCLOR 1254, Method: PREINCUBATION) was “inactive; negative”.
On to `CCCCCN(CCCCC)N=O`, for which the mutagenic call runs as follows: (Test System: AMES SALMONELLA TYPHIMURIUM, Strain/Indicator: TA100, Metabolic Activation: RAT, LIVER, S-9, KC500 OR PHENOBARBITAL, Method: LIQUID SUSPENSION) “active; positive”; (Test System: AMES SALMONELLA TYPHIMURIUM, Strain/Indicator: TA1530, Metabolic Activation: RAT, LIVER, S-9, Method: STANDARD PLATE) “active; positive”; (Test System: CHINESE HAMSTER V-79, Strain/Indicator: V-79/8-AZAGUANINE, Metabolic Activation: CELL-MEDIATED, Method: STANDARD PLATE) “active; positive”.
`N=C(N)c1ccc(-c2cc3ccc(C(=N)N)cc3[nH]2)cc1`: the mutagenic call is “inactive; negative” under setting [4]; “inactive; negative” (Test System: AMES SALMONELLA TYPHIMURIUM, Strain/Indicator: TA98, Metabolic Activation: RAT, LIVER, S-9, PHENOBARBITAL, Method: STANDARD PLATE); “inactive; negative” under setting [5]; “inactive; negative” (Test System: AMES SALMONELLA TYPHIMURIUM, Strain/Indicator: TA100, Metabolic Activation: RAT, LIVER, S-9, PHENOBARBITAL, Method: STANDARD PLATE); “inactive; negative” (Test System: E. COLI, Strain/Indicator: WP2, Metabolic Activation: NONE, Method: PREINCUBATION).
With `Nc1nc(Cl)c2[nH]cnc2n1`, the mutagenic call under setting [5] was “active; positive”.
For `C/C=C(\Cl)C1=C(Cl)C(=O)[C@]23C[C@H]2C(C)(C)O[C@]3(O)C1=O`, the mutagenic call (Test System: AMES SALMONELLA TYPHIMURIUM, Strain/Indicator: TA97, Metabolic Activation: NONE) was “inactive; negative”; the mutagenic call (Test System: AMES SALMONELLA TYPHIMURIUM, Strain/Indicator: TA98, Metabolic Activation: NONE) was “inactive; negative”; the mutagenic call (Test System: AMES SALMONELLA TYPHIMURIUM, Strain/Indicator: TA100, Metabolic Activation: NONE) is “active; positive”; the mutagenic call (Test System: AMES SALMONELLA TYPHIMURIUM, Strain/Indicator: TA102, Metabolic Activation: NONE) is “active; positive”.
For `NC(=O)OC1CO1` (stereo unspecified), under “Test System: AMES SALMONELLA TYPHIMURIUM, Strain/Indicator: TA1535, Metabolic Activation: RAT, LIVER, MICROSOMES, Method: STANDARD PLATE”, the mutagenic call was “active; positive”.
Turning to `O=C1C=CC(=O)C(c2ccccc2)=C1`, the mutagenic call by setting is: under setting [1], “inactive; negative”; (Test System: AMES SALMONELLA TYPHIMURIUM, Strain/Indicator: TA98, Metabolic Activation: RAT, LIVER, S-9, PHENOBARBITAL AND 5,6-BENZOFLAVONE, Method: PREINCUBATION) “inactive; negative”; under setting [2], “inactive; negative”; (Test System: AMES SALMONELLA TYPHIMURIUM, Strain/Indicator: TA100, Metabolic Activation: RAT, LIVER, S-9, PHENOBARBITAL AND 5,6-BENZOFLAVONE, Method: PREINCUBATION) “inactive; negative”; under setting [3], “inactive; negative”; (Test System: AMES SALMONELLA TYPHIMURIUM, Strain/Indicator: TA102, Metabolic Activation: RAT, LIVER, S-9, PHENOBARBITAL AND 5,6-BENZOFLAVONE, Method: PREINCUBATION) “inactive; negative”. Besides, the mutagenic call is, setting by setting: (Test System: AMES SALMONELLA TYPHIMURIUM, Strain/Indicator: TA104, Metabolic Activation: NONE, Method: PREINCUBATION) “inactive; negative”; (Test System: AMES SALMONELLA TYPHIMURIUM, Strain/Indicator: TA104, Metabolic Activation: RAT, LIVER, S-9, PHENOBARBITAL AND 5,6-BENZOFLAVONE, Method: PREINCUBATION) “inactive; negative”; (Test System: AMES SALMONELLA TYPHIMURIUM, Strain/Indicator: TA2637, Metabolic Activation: NONE, Method: PREINCUBATION) “inactive; negative”; (Test System: AMES SALMONELLA TYPHIMURIUM, Strain/Indicator: TA2637, Metabolic Activation: RAT, LIVER, S-9, PHENOBARBITAL AND 5,6-BENZOFLAVONE, Method: PREINCUBATION) “inactive; negative”; (Test System: CHINESE HAMSTER V-79, Strain/Indicator: V-79 (HGPRT)/6-THIOGUANINE, Metabolic Activation: NONE) “inactive; negative”.
Regarding `CCOC(=O)c1[nH]c2ccccc2c1N=Cc1ccc([N+](=O)[O-])cc1`, the mutagenic call (Test System: AMES SALMONELLA TYPHIMURIUM, Strain/Indicator: TA97, Metabolic Activation: NONE, Method: STANDARD PLATE) was “inactive; negative”; the mutagenic call (Test System: AMES SALMONELLA TYPHIMURIUM, Strain/Indicator: TA97, Metabolic Activation: RAT, LIVER, S-9, AROCLOR 1254, Method: STANDARD PLATE) was “inactive; negative”; the mutagenic call under setting [4] was “inactive; negative”; the mutagenic call (Test System: AMES SALMONELLA TYPHIMURIUM, Strain/Indicator: TA98, Metabolic Activation: RAT, LIVER, S-9, AROCLOR 1254, Method: STANDARD PLATE) is “active; positive”; the mutagenic call under setting [5] was “inactive; negative”; the mutagenic call (Test System: AMES SALMONELLA TYPHIMURIUM, Strain/Indicator: TA100, Metabolic Activation: RAT, LIVER, S-9, AROCLOR 1254, Method: STANDARD PLATE) was “inactive; negative”. Besides, the mutagenic call is, setting by setting: (Test System: AMES SALMONELLA TYPHIMURIUM, Strain/Indicator: TA102, Metabolic Activation: NONE, Method: STANDARD PLATE) “inactive; negative”; (Test System: AMES SALMONELLA TYPHIMURIUM, Strain/Indicator: TA102, Metabolic Activation: RAT, LIVER, S-9, AROCLOR 1254, Method: STANDARD PLATE) “inactive; negative”.
